The record followed here is US8603498B2, “Lipo-phosphated or lipo-sulphated compound, compositions comprising it and topical uses thereof” (Sederma, S.A.S., priority 2010, dated 2013).

The test system of the test is collagen I. Put plainly: Synthesis of collagen I on human dermal fibroblast (immunolabeling). As to conditions: 10^−6%, positive control. The format is cell-based. The protocol: Normal human fibroblasts (NHF) are cultivated in MW24 plates for 24 hours. The cells are contacted or not with the Lipo-Phosphomalate of the invention at various concentrations for 7 days. The synthesis of collagen I produced by the cells is then quantified by immunolabeling fixed on the layers using a specific antibody. Quantification by image analysis is then performed on the photos. TGF-β1 is used as positive control.
An analysis of variance was performed on the data (cases treated compared with untreated cases). In the case of identity of variances, a Student't test was then performed on the means.

Regarding “TGF- β1: positive control for laminin and collagen I synthesis”, the “collagen I % Variation/control” value is “+1374%;” and the “collagen I AFU mean” value was 55 +/− 17.6 AFU.
